Results as given in patent US12552767B2, “3-heteroaryl pyrrolidine and piperidine orexin receptor agonists” (Merck Sharp & Dohme LLC, priority 2020, dated 2026).

Molecular target: T1, human OX2R (Homo sapiens, UniProt O43614)
T1 construct: expressed in transfected cells; host or cells: CHO (Chinese hamster ovary) cells, grown under G418 selection
T1 sequence (O43614 1-444): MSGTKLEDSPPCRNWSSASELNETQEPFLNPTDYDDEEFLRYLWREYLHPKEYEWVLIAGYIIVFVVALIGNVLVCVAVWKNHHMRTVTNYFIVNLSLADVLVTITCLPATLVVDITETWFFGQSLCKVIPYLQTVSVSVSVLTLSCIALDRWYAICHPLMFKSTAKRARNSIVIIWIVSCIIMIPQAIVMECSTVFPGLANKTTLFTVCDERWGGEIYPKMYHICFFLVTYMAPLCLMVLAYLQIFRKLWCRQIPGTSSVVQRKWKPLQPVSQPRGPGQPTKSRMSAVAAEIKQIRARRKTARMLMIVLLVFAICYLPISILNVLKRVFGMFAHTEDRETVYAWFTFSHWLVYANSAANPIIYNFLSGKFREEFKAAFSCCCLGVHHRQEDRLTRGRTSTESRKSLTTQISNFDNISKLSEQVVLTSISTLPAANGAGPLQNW
Test: IP-One (IPOne) orexin receptor agonist assay in CHO cells expressing human OX2R
Assay type: cell-based
Conditions: for EC50: CHO cells expressing human OX2R, IP-One IP-1 detection, 2 hours incubation, four parameter logistic fit, read-out: OX2R Potency, EC50; for % of reference agonist maximal effect: human OX2R, percentage of sample raw value/mean max effect (reference compound at 1 uM with 100% activity)
Summary of the method: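 CHO cells stably expressing human OX2R were stimulated with compound (10-point ½-log dilutions) for 2 h at 37 °C. IP-1 accumulation was read by HTRF (IP-One, 665/620 nm). EC50 from a four-parameter fit; % effect relative to 1 μM reference agonist control.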

EC50 | % of reference agonist maximal effect | Structure (SMILES)
1.02 µM | 98.7% | COC(=O)COC(=O)N1CCC[C@H](c2cc[nH]n2)[C@@H]1CO[C@H]1CC[C@@H](c2ccccc2)CC1 (relative stereo) [Example 98, 2-methoxy-2-oxoethyl (CIS)-2-((((CIS)-4-phenylcyclohexyl)oxy)methyl)-3-(1H-pyrazol-3-yl)piperidine-1-carboxylate]
1.82 µM | 88.9% | CC(OC(=O)N1CCC[C@H](c2cc[nH]n2)[C@@H]1CO[C@H]1CC[C@@H](c2ccccc2)CC1)C(F)F (relative stereo) [Example 99, 1,1-difluoropropan-2-yl (CIS)-2-((((CIS)-4-phenylcyclohexyl)oxy)methyl)-3-(1H-pyrazol-3-yl)piperidine-1-carboxylate]
2.36 µM | 61.8% | C#CCOC(=O)N1CCC[C@H](c2cc[nH]n2)[C@@H]1CO[C@H]1CC[C@@H](c2ccccc2)CC1 (relative stereo) [Example 100, prop-2-yn-1-yl (CIS)-2-((((CIS)-4-phenylcyclohexyl)oxy)methyl)-3-(1H-pyrazol-3-yl)piperidine-1-carboxylate]
2.93 µM | 40.7% | O=C(OCC(F)(F)F)N1CCC[C@H](c2cc[nH]n2)[C@@H]1CO[C@H]1CC[C@@H](c2ccccc2)CC1 (relative stereo) [Example 102, 2,2,2-trifluoroethyl (CIS)-2-((((CIS)-4-phenylcyclohexyl)oxy)methyl)-3-(1H-pyrazol-3-yl)piperidine-1-carboxylate]
3.61 µM | 73.6% | CC#CCOC(=O)N1CCC[C@H](c2cc[nH]n2)[C@@H]1CO[C@H]1CC[C@@H](c2ccccc2)CC1 (relative stereo) [Example 103, but-2-yn-1-yl (CIS)-2-((((CIS)-4-phenylcyclohexyl)oxy)methyl)-3-(1H-pyrazol-3-yl)piperidine-1-carboxylate]
3.85 µM | 65.1% | O=C(OCC1CCC1)N1CCC[C@H](c2cc[nH]n2)[C@@H]1CO[C@H]1CC[C@@H](c2ccccc2)CC1 (relative stereo) [Example 104, cyclobutylmethyl (CIS)-2-((((CIS)-4-phenylcyclohexyl)oxy)methyl)-3-(1H-pyrazol-3-yl)piperidine-1-carboxylate]
3.94 µM | 64.9% | CC(C)COC(=O)N1CCC[C@H](c2cc[nH]n2)[C@@H]1CO[C@H]1CC[C@@H](c2ccccc2)CC1 (relative stereo) [Example 105, isobutyl (CIS)-2-((((CIS)-4-phenylcyclohexyl)oxy)methyl)-3-(1H-pyrazol-3-yl)piperidine-1-carboxylate]
5.08 µM | 71.4% | CC#CCCOC(=O)N1CCC[C@H](c2cc[nH]n2)[C@@H]1CO[C@H]1CC[C@@H](c2ccccc2)CC1 (relative stereo) [Example 106, pent-3-yn-1-yl (CIS)-2-((((CIS)-4-phenylcyclohexyl)oxy)methyl)-3-(1H-pyrazol-3-yl)piperidine-1-carboxylate]
5.56 µM | 78.6% | Cc1cnc(COC(=O)N2CCC[C@H](c3cc[nH]n3)[C@@H]2CO[C@H]2CC[C@@H](c3ccccc3)CC2)o1 (relative stereo) [Example 109, (5-methyloxazol-2-yl)methyl (CIS)-2-((((CIS)-4-phenylcyclohexyl)oxy)methyl)-3-(1H-pyrazol-3-yl)piperidine-1-carboxylate]
6.23 µM | 58.5% | CC(F)(F)COC(=O)N1CCC[C@H](c2cc[nH]n2)[C@@H]1CO[C@H]1CC[C@@H](c2ccccc2)CC1 (relative stereo) [Example 110, 2,2-difluoropropyl (CIS)-2-((((CIS)-4-phenylcyclohexyl)oxy)methyl)-3-(1H-pyrazol-3-yl)piperidine-1-carboxylate]
6.29 µM | 78.4% | O=C(OCCF)N1CCC[C@H](c2cc[nH]n2)[C@@H]1CO[C@H]1CC[C@@H](c2ccccc2)CC1 (relative stereo) [Example 111, 2-fluoroethyl (CIS)-2-((((CIS)-4-phenylcyclohexyl)oxy)methyl)-3-(1H-pyrazol-3-yl)piperidine-1-carboxylate]
6.36 µM | 61.6% | O=C(OC1CCC1)N1CCC[C@H](c2cc[nH]n2)[C@@H]1CO[C@H]1CC[C@@H](c2ccccc2)CC1 (relative stereo) [Example 112, cyclobutyl (CIS)-2-((((CIS)-4-phenylcyclohexyl)oxy)methyl)-3-(1H-pyrazol-3-yl)piperidine-1-carboxylate]
6.67 µM | 57.4% | O=C(OC(CF)CF)N1CCC[C@H](c2cc[nH]n2)[C@@H]1CO[C@H]1CC[C@@H](c2ccccc2)CC1 (relative stereo) [Example 113, 1,3-difluoropropan-2-yl (CIS)-2-((((CIS)-4-phenylcyclohexyl)oxy)methyl)-3-(1H-pyrazol-3-yl)piperidine-1-carboxylate]
6.78 µM | 80.5% | COC(=O)CCOC(=O)N1CCC[C@H](c2cc[nH]n2)[C@@H]1CO[C@H]1CC[C@@H](c2ccccc2)CC1 (relative stereo) [Example 114, 3-methoxy-3-oxopropyl (CIS)-2-((((CIS)-4-phenylcyclohexyl)oxy)methyl)-3-(1H-pyrazol-3-yl)piperidine-1-carboxylate]
8 µM | 47.3% | O=C(OC1CCCC1)N1CCC[C@H](c2cc[nH]n2)[C@@H]1CO[C@H]1CC[C@@H](c2ccccc2)CC1 (relative stereo) [Example 117, cyclopentyl (CIS)-2-((((CIS)-4-phenylcyclohexyl)oxy)methyl)-3-(1H-pyrazol-3-yl)piperidine-1-carboxylate]
8.96 µM | 47.9% | COCCCOC(=O)N1CCC[C@H](c2cc[nH]n2)[C@@H]1CO[C@H]1CC[C@@H](c2ccccc2)CC1 (relative stereo) [Example 118, 3-methoxypropyl (CIS)-2-((((CIS)-4-phenylcyclohexyl)oxy)methyl)-3-(1H-pyrazol-3-yl)piperidine-1-carboxylate]
1.14 µM | 97.8% | C=CCNC(=O)N1CCC[C@H](c2cc[nH]n2)[C@@H]1CO[C@H]1CC[C@@H](C(C)C)CC1 (relative stereo) [Example 120, (CIS)-N-allyl-2-((((CIS)-4-isopropylcyclohexyl)oxy)methyl)-3-(1H-pyrazol-3-yl)piperidine-1-carboxamide]
1.54 µM | 96.1% | CC(C)NC(=O)N1CCC[C@H](c2cc[nH]n2)[C@@H]1CO[C@H]1CC[C@@H](C(C)C)CC1 (relative stereo) [Example 121, (CIS)-N-isopropyl-2-((((CIS)-4-isopropylcyclohexyl)oxy)methyl)-3-(1H-pyrazol-3-yl)piperidine-1-carboxamide]
2.42 µM | 93.6% | CC(C)[C@H]1CC[C@@H](OC[C@H]2[C@@H](c3cc[nH]n3)CCCN2C(=O)NCc2ccccc2)CC1 (relative stereo) [Example 122, (CIS)-N-benzyl-2-((((CIS)-4-isopropylcyclohexyl)oxy)methyl)-3-(1H-pyrazol-3-yl)piperidine-1-carboxamide]
6.73 µM | 87.9% | CC(C)[C@H]1CC[C@@H](OC[C@H]2[C@@H](c3cc[nH]n3)CCCN2C(=O)NCC2CCCCC2)CC1 (relative stereo) [Example 123, (CIS)-N-(cyclohexylmethyl)-2-((((CIS)-4-isopropylcyclohexyl)oxy)methyl)-3-(1H-pyrazol-3-yl)piperidine-1-carboxamide]
8.2 µM | 92.3% | CC(C)[C@H]1CC[C@@H](OC[C@H]2[C@@H](c3cc[nH]n3)CCCN2C(=O)NC2CCCCC2)CC1 (relative stereo) [Example 124, (CIS)-N-cyclohexyl-2-((((CIS)-4-isopropylcyclohexyl)oxy)methyl)-3-(1H-pyrazol-3-yl)piperidine-1-carboxamide]
0.0224 µM | 99.1% | O=C(NCC1CCC1)N1CCC[C@H](c2cc[nH]n2)[C@@H]1CO[C@H]1CC[C@@H](c2ccccc2)CC1 (relative stereo) [Example 125, (CIS)-N-(cyclobutylmethyl)-2-((((CIS)-4-phenylcyclohexyl)oxy)methyl)-3-(1H-pyrazol-3-yl)piperidine-1-carboxamide]

Structure (SMILES) | EC50 | % of reference agonist maximal effect
O=C(Oc1cccnc1)N1CCC[C@H](c2cc[nH]n2)[C@@H]1CO[C@H]1CC[C@@H](c2ccccc2)CC1 (relative stereo) [Example 101, pyridin-3-yl (CIS)-2-((((CIS)-4-phenylcyclohexyl)oxy)methyl)-3-(1H-pyrazol-3-yl)piperidine-1-carboxylate] | 2.51 µM | 77.7%
